Source: EP4817428A1, “SWEETNESS ENHANCER CONTAINING ERGOTHIONEINE AS ACTIVE INGREDIENT, AND FOOD OR BEVERAGE PRODUCT CONTAINING SAME” (Kikkoman Corporation, priority 2023, dated 2025)
Like-named read-outs stand apart in the source and are kept apart here.

Experiments:
[1] = type: in vivo
Method: Samples were prepared by adding ergothioneine to 1% to 50% sucrose solutions to final concentrations of 0 ppm, 0.05 ppm, 0.1 ppm, 0.25 ppm, and 0.5 ppm (ERG0 to 0.5 in Table 1 below; hereinafter, "ERGX" means a sample to which X ppm of ERG is added).
A drinking test by an expert panel of four, different from those in Tests 1 and 2, was conducted on 1% to 50% sucrose samples to which ERG was added at each concentration (the concentration was not disclosed to the panel), using a 1% to 50% sucrose sample to which no ergothioneine was added as a control, and sweetness was sensorially evaluated. After tasting each sample and before tasting the next sample, the mouth was completely rinsed with water at room temperature. Pairs combining the control 1% to 50% sucrose sample and the 1% to 50% sucrose sample containing ergothioneine at each concentration were presented to the expert panel, and the panel evaluated which sample of the presented pair was perceived to be sweeter by a paired comparison test.
(§1) Evaluation results of sweetness of test product compared with control • ∘: Sweetness was enhanced compared to the control. • ◇: Sweetness was similar to that of the control.

[2] = type: in vivo; conditions: 4% sucrose
Method: as §1
Samples (ERG5 to 900) were prepared by adding ergothioneine to a 4% sucrose solution to final concentrations of 5 ppm, 20 ppm, 60 ppm, 100 ppm, 400 ppm, and 900 ppm, and a drinking test by an expert panel of four, different from those in Tests 1 and 2, was conducted on the 4% sucrose samples to which ERG was added at each concentration (the concentration was not disclosed to the panel), and sweetness was sensorially evaluated.
Pairs combining the control 4% sucrose sample of Table 3 below and the 4% sucrose sample containing ergothioneine at each concentration were presented to the expert panel, and the panel evaluated which sample of the presented pair was perceived to be sweeter by a paired comparison test.

physchem = type: physicochemical; conditions: 10% (100,000 ppm) dissolved in water at 40°C, left at 4°C; ERG precipitated 1 day later; read-out: concentration at which ERG could be contained in water
Method: ERG was dissolved in water at 40°C so that the ergothioneine concentration became 10% (100,000 ppm), and then left to stand at 4°C. When the solution was checked 1 day later, ERG was precipitated. From the above, the concentration at which ERG could be contained in water was less than 10%.

[3] = type: in vivo; remark: listed apart in the source
Text: as §1
Pairs combining a control 50% glucose sample to which ergothioneine was not added and a 50% glucose sample containing ergothioneine at each concentration were presented to the expert panel of four, and the panel evaluated which sample of the presented pair was perceived to be sweeter by a paired comparison test.
The same test as in the 50% glucose solution of (1) described above was conducted on a 10% glucose solution using the samples (ERG0 to 20) shown in Table 6.

[4] = type: in vivo; remark: listed apart in the source
Method: as §1
Samples (ERG0 to 10) were prepared by adding ergothioneine to 20% fructose samples to final concentrations of 0.5 ppm, 1 ppm, 3 ppm, 5 ppm, and 10 ppm.
A drinking test by a panel of four experts was conducted on 20% fructose samples to which ERG was added at each concentration (the concentration was not disclosed to the panel), using a 20% fructose sample to which no ergothioneine was added as a control, and sweetness was sensorially evaluated.
In addition, samples (ERG0.5 to 900) were prepared by adding ergothioneine to 20% fructose samples to final concentrations of 0.5 ppm, 5 ppm, 10 ppm, 20 ppm, 40 ppm, 60 ppm, 80 ppm, 100 ppm, 200 ppm, 400 ppm, and 900 ppm.
Pairs combining 20% fructose samples containing different concentrations of ERG (for example, a pair of ERG 20 ppm and 40 ppm) were presented to the expert panel, and the panel evaluated which sample of the presented pair was perceived to be sweeter by a paired comparison test.

[5] = type: in vivo; conditions: 50% trehalose samples
Method: as §1
In the following Test 9, sensory evaluation was performed by a panel of three experts in the same paired comparison test as in Tests 3, 5, and 7.
Samples were prepared by adding ergothioneine to a 50% trehalose sample to final concentrations of 0.5 ppm, 1 ppm, 3 ppm, 5 ppm, 10 ppm, and 20 ppm (Table 11, ERG0 to 20).
For the 50% trehalose samples to which ERG was added at each concentration (the concentration was not disclosed to the panel), pairs combining a control 50% trehalose sample and a 50% trehalose sample containing ergothioneine at each concentration were presented to the expert panel, and the panel evaluated which sample of the presented pair was perceived to be sweeter by a paired comparison test.

[6] = Test 9 (6): paired comparison test of sweetness, 0.1% stevia sample; type: in vivo; conditions: 0.1% stevia samples
Text: Pairs combining a control 0.1% stevia sample and a 0.1% stevia sample containing ERG at each concentration were presented, and the panel evaluated which sample of the presented pair was perceived to be sweeter by a paired comparison test.

[7] = Test 9 (7): paired comparison test of sweetness, 12.5% glycine sample; type: in vivo; conditions: 12.5% glycine samples
Text: Pairs combining a control 12.5% glycine sample and a 12.5% glycine sample containing ERG at each concentration were presented, and the panel evaluated which sample of the presented pair was perceived to be sweeter by a paired comparison test.

[8] = type: in vivo; conditions: amakuchi soy sauce
Method: as §1
A drinking test by a panel of three experts was conducted on the soy sauce to which ERG was added at each concentration (the concentration was not disclosed to the panel), using a soy sauce to which no ergothioneine was added (ERG0) as a control, and the sweetness was sensorially evaluated by a paired comparison test.
The same test as in (1) described above was conducted by adding ERG to a commercially available amakuchi soy sauce (Golden Murasaki, Fundokin Shoyu).

[9] = type: in vivo; remark: listed apart in the source
Method: Evaluation results of sweetness of test product compared with control • ∘: Sweetness was enhanced compared to the control. • ◇: Sweetness was similar to that of the control. […]
A drinking test by a panel of three experts was conducted on the prepared soy milk to which ERG was added at each concentration (the concentration was not disclosed to the panel), using a prepared soy milk to which no ergothioneine was added (ERG0) as a control, and the sweetness was sensorially evaluated by a paired comparison test.

[10] = sucrose solution of 0.5% or more and less than 1%
[11] = sucrose solution of 1% or more and less than 10%
[12] = sucrose solution of 10% or more

For C[N+](C)(C)[C@@H](Cc1c[nH]c(=S)[nH]1)C(=O)[O-] [ERG, Ergothioneine], the “ERG added at which all evaluated that the sweetness was enhanced” value [1, 10] was no less than 0.5 ppm, the “amount of ERG having a sweetness-enhancing effect relative to the sucrose content” value [1, 10] was no less than 0.01 % by weight and the “ERG added at which all evaluated that the sweetness was enhanced” value [1, 11] was no less than 0.25 ppm. The “amount of ERG having a sweetness-enhancing effect relative to the sucrose content” value [1, 11] was no less than 0.0025 % by weight, the “ERG added at which all evaluated that the sweetness was enhanced” value [1, 12] was no less than 0.1 ppm and the “amount of ERG having a sweetness-enhancing effect relative to the sucrose content” value [1, 12] was no less than 0.0001 % by weight. The “ERG concentration at which the sweetness-enhancing effect became constant” value (“ERG concentration” for short) [2] was 100 ppm, the solubility at 24 h (physchem) was less than 100 mg/mL and the “ERG concentration” value ([3]; 10% glucose) was 60 ppm. For the same compound, the “ERG added at which all the panelists evaluated that the sweetness was enhanced” value ([3]; 10% glucose solution) was no less than 0.5 ppm, the “ERG having a sweetness-enhancing effect, based on the glucose content” value ([3]; 10% glucose solution) was no less than 0.0005 % by weight and the “ERG concentration” value ([4]; 20% fructose) was 80 ppm. For the same compound, the “ERG added at which all the panelists evaluated that the sweetness was enhanced” value ([4]; 20% fructose samples) was no less than 0.5 ppm, the “ERG having a sweetness-enhancing effect, based on the fructose content” value ([4]; 20% fructose samples) was no less than 0.0003 % by weight and the “ERG added at which all the panelists evaluated that the sweetness was enhanced” value [5] was no less than 0.5 ppm. For the same compound, the “ERG having a sweetness-enhancing effect, based on the trehalose content” value [5] was no less than 0.0001 % by weight, the “ERG added at which all the panelists evaluated that the sweetness was enhanced” value [6] was no less than 0.5 ppm and the “ERG having a sweetness-enhancing effect, based on the stevia content” value [6] was no less than 0.05 % by weight. For the same compound, the “ERG added at which all the panelists evaluated that the sweetness was enhanced” value [7] was no less than 0.5 ppm, the “ERG having a sweetness-enhancing effect, based on the glycine content” value [7] was no less than 0.0004 % by weight and the “ERG added at which all the panelists evaluated that the sweetness was enhanced” value [8] was no less than 10 ppm. For the same compound, the “ERG content at which all the panelists evaluated the enhancement of sweetness” value ([9]; prepared soy milk) was 5 ppm, the “ERG content at which two panelists evaluated that the sweetness was enhanced” value ([9]; prepared soy milk) was 3 ppm and the creamy feel ([9]; prepared soy milk containing 40 ppm of ERG) was “increased”.
